SMILES strings stand for the structures. Some results are limits rather than exact numbers.

Sequence of p300 HAT domain (residues 1287-1666) (Q09472 1287-1666): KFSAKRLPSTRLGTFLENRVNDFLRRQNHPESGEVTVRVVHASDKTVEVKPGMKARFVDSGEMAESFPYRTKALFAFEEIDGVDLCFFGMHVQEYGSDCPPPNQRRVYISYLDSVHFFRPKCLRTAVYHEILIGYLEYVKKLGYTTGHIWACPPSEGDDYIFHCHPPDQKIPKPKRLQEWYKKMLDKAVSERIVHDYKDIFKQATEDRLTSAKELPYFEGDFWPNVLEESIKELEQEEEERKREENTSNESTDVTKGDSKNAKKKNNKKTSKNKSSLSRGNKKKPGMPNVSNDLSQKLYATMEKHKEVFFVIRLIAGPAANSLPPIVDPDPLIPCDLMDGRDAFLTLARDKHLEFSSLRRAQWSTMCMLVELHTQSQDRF

This assay has as its target p300 HAT domain (residues 1287-1666) (Homo sapiens (Human), UniProt Q09472). The experiment in a line: p300 HAT SPA assay (scintillation proximity assay, acetylation of biotinylated H3(1-21) peptide). In kind it is biochemical. To be noted: average of at least 2 replicate titrations. How it is done:
In a typical experiment the p300 HAT inhibitory activity of the compounds described herein was determined in accordance with the following experimental method.
The expressed protein was purified by Ni2+ affinity, followed by anion exchange chromatography. Appropriate fractions were pooled and buffer exchanged into 20 mM Hepes pH 7.5, 150 mM NaCl, and 1 mM TCEP.
35 μL of the reaction volume was transferred to a 384-well streptavidin FlashPlate (PerkinElmer) using a Bravo liquid handler (Velocity 11) and incubated for 1.5 hr at RT. […] Data were analyzed in Genedata to determine inhibitor IC50 values.
On the technique in general: Scintillation proximity formats need no separation of bound from free tracer.
Molecule `N#Cc1ccc(CCNC(C(=O)Nc2ccc(N3CCCC3)cn2)c2ccccc2)cc1` (single isomer, unassigned) [37 Isomer 2] returned an IC50 of 3730 nM.

Molecule `CC(CNC(C(=O)Nc1ccc(N2CCN(C)C(=O)C2)cn1)c1ccccc1)c1ccc(C#N)cc1` (single isomer, unassigned) [101 Isomer 3] displayed an IC50 of 355 nM.

The molecule `CC(CNC(C(=O)Nc1ccc(N2CCN(C)C(=O)C2)cn1)c1cnn(C)c1)c1ccc(C#N)cc1` (single isomer, unassigned) [136 Isomer 2] registered an IC50 greater than 2000 nM.

In turn, `Cn1cc(-c2ccc(NC(=O)C(NCCc3ccc(C#N)cc3)C3CCCCC3)nc2)cn1` (single isomer, unassigned) [89 Isomer 1] registered an IC50 greater than 2000 nM.

Take `Cc1cnc(-c2ccc(NC(=O)C(NCCc3ccc(C#N)cc3)c3ccccc3)cc2)[nH]1` (single isomer, unassigned) [11 Isomer 1]: the midpoint of inhibition, the IC50, lay at 279 nM.

Regarding `CCN1CCN(c2ccc(NC(=O)C(NC[C@@H](C)c3ccc(C#N)cc3)c3ccccc3)nc2)CC1=O` (single isomer, unassigned) [102 Isomer 1], the IC50 was determined as 30.8 nM.

In turn, `Cn1cc(-c2ccc(NC(=O)C(NCCc3ccc(C#N)cc3)c3ccc(Cl)cc3)nc2)cn1` (single isomer, unassigned) [67 Isomer 1] yielded a half-inhibitory concentration (IC50) greater than 2000 nM.

Consider `COc1ccc(C(NCCc2ccc(C#N)cc2)C(=O)Nc2ccc(-c3cnn(C)c3)cn2)cc1` (single isomer, unassigned) [63 Isomer 1], for which half-maximal inhibition (IC50) was put at 86 nM.

`Cc1ncc(C(C)CNC(C(=O)Nc2ccc(-c3cnn(C)c3)cn2)c2ccccc2)cn1` (single isomer, unassigned) [150 Isomer 4] yielded an IC50 of 622 nM.

`Cc1nc(NC(=O)C(NCC(C)c2ccc(C#N)cc2)c2ccccc2)ccc1-c1cnn(C)c1` (single isomer, unassigned) [39 Isomer 2] showed an IC50 greater than 2000 nM.

In turn, `Cn1cc(-c2ccc(NC(=O)C(NCCc3ccc(C(F)(F)F)nc3)c3ccccc3)nc2)cn1` (single isomer, unassigned) [140 Isomer 2] returned an IC50 greater than 2000 nM.

Regarding `Cc1nc(-c2ccc(NC(=O)C(NC[C@@H](C)c3ccc(C#N)cc3)c3ccccc3)nc2)no1` (single isomer, unassigned) [107 Isomer 1], the concentration for half-maximal inhibition (IC50) was greater than 2000 nM.

As for `N#Cc1ccc(CCNC(C(=O)Nc2ccc(C3CCC3)cn2)c2ccccc2)cc1` (single isomer, unassigned) [46 Isomer 1], the IC50 is greater than 5000 nM.

Consider `CC1CN(C)C(=O)CN1c1ccc(NC(=O)C(NC[C@@H](C)c2ccc(C#N)cc2)c2ccccc2)nc1` (single isomer, unassigned) [125 Isomer 1], for which the IC50 is 1650 nM.

For `CC(CNC(C(=O)Nc1ccc(-c2cn[nH]c2)cn1)c1ccccc1)c1ccc(C#N)cc1` (single isomer, unassigned) [104 Isomer 3], the IC50 is 415 nM.

For the molecule `Cc1cnc(-c2ccc(NC(=O)[C@@H](NCCc3ccc(Cl)cc3)c3ccccc3)cc2)[nH]1` (single isomer, unassigned) [9 Isomer 2], half-maximal inhibition (IC50) required 133 nM.

The molecule `N#Cc1ccc(CCNC(C(=O)Nc2ccc(N3CC4(COC4)C3)cn2)c2ccccc2)cc1` (single isomer, unassigned) [80 Isomer 1] displayed an IC50 of 201 nM.

`Cc1nc(NC(=O)C(NCC(C)c2ccc(C#N)cc2)c2ccccc2)ccc1-c1cnn(C)c1` (single isomer, unassigned) [39 Isomer 3] displayed an IC50 of 17.7 nM.

As to `C[C@H](CNC(C(=O)Nc1ccc(-c2ccc(=O)n(C)n2)cn1)c1ccccc1)c1ccc(C#N)cc1` (single isomer, unassigned) [134 Isomer 1], the IC50 was greater than 2000 nM.

For `Cn1cc(-c2ccc(NC(=O)C(NCCc3ccc(C#N)cc3)c3cccc(C(F)(F)F)c3)nc2)cn1` (single isomer, unassigned) [117 Isomer 1], the IC50 was greater than 2000 nM.

In turn, `CC(CNC(C(=O)Nc1ccc(-c2cnn(C)n2)cn1)c1ccccc1)c1ccc(C#N)cc1` (single isomer, unassigned) [98 Isomer 4] returned an IC50 of 1460 nM.

`CCN(CC)C(=O)C1CCN(c2ccc(NC(=O)C(NCCc3ccc(C#N)cc3)c3ccccc3)nc2)CC1` (single isomer, unassigned) [64 Isomer 1]: the IC50 is greater than 2000 nM.

Consider `Cn1cc(-c2ccc(NC(=O)C(NCC(c3ccc(C#N)cc3)C(F)(F)F)c3ccccc3)nc2)cn1` (single isomer, unassigned) [149 Isomer 1], for which the half-maximal inhibitory concentration (IC50) was greater than 2000 nM.

In turn, `C[C@H](CNC(C(=O)Nc1ccc(-c2cc(=O)n(C)cn2)cn1)c1ccccc1)c1ccc(C#N)cc1` (single isomer, unassigned) [106 Isomer 2] displayed an IC50 of 25.5 nM.

`Cc1ccc(-c2ccc(NC(=O)C(NCC(C)c3ccc(C#N)cc3)c3ccccc3)nc2)nn1` (single isomer, unassigned) [15 Isomer 1]: the IC50 was greater than 2000 nM.

Molecule `COC1CN(c2ccc(NC(=O)C(NCC(C)c3ccc(C#N)cc3)c3ccccc3)nc2)C1` (single isomer, unassigned) [32 Isomer 1] gave an IC50 greater than 2000 nM.

In turn, `N#Cc1ccc(CCNC(C(=O)Nc2ccc(N3CCOCC3)cn2)c2ccccc2)cc1` (single isomer, unassigned) [81 Isomer 1] yielded an IC50 of 139 nM.

For `Cn1cc(-c2ncc(NC(=O)C(NCCc3ccc(C#N)cc3)c3ccccc3)cn2)cn1` (single isomer, unassigned) [23 Isomer 2], the IC50 was greater than 5000 nM.

Molecule `CC(CNC(C(=O)Nc1ccc(N2CCN(CC(F)(F)F)C(=O)C2)cn1)c1ccccc1)c1ccc(C#N)cc1` (single isomer, unassigned) [103 Isomer 4] registered an IC50 greater than 2000 nM.

With `CC(CNC(C(=O)Nc1ccc(-n2cnc(C(C)(C)C)c2)cn1)c1ccccc1)c1ccc(C#N)cc1` (single isomer, unassigned) [59 Isomer 4], the IC50 came to 39.3 nM. This counts as double-digit nanomolar.

As for `Cn1cc(-c2ccc(NC(=O)C(NCCc3ccc(C#N)cc3)c3cccc(C(F)(F)F)c3)nc2)cn1` (single isomer, unassigned) [117 Isomer 2], the IC50 was greater than 2000 nM.

Consider `C[C@H](CNC(C(=O)Nc1ccc(-c2cnn(C)c(=O)c2)cn1)c1ccccc1)c1ccc(C#N)cc1` (single isomer, unassigned) [139 Isomer 2], for which the IC50 was greater than 2000 nM.

The molecule `Cc1ccc(CCNC(C(=O)Nc2ccc(-c3cnn(C)c3)cn2)c2ccccc2)cn1` (single isomer, unassigned) [141 Isomer 1] had an IC50 of 95.1 nM.

On to `CC(CNC(C(=O)Nc1ccc(-c2cnn(C3CCC3)c2)cn1)c1ccccc1)c1ccc(C#N)cc1` (single isomer, unassigned) [52 Isomer 1], for which the IC50 was found to be 612 nM.

On to `COc1cccc(C(NCCc2ccc(C#N)cc2)C(=O)Nc2ccc(-c3cnn(C)c3)cn2)c1` (single isomer, unassigned) [70 Isomer 1], for which the IC50 was greater than 2000 nM.

`Cn1cc(-c2ccc3c(c2)CCCN3C(=O)[C@@H](NCCc2ccc(C#N)cc2)c2ccccc2)cn1` (single isomer, unassigned) [151 Isomer 1] returned an IC50 greater than 5000 nM.

Take `CN1CCN(c2ccc(NC(=O)C(NCCc3ccc(C#N)cc3)c3ccccc3)cn2)CC1` (single isomer, unassigned) [36 Isomer 2]: the IC50 was greater than 5000 nM.

Molecule `C[C@H](CNC(C(=O)Nc1ccc(C2CC(=O)N(C)C2)cn1)c1ccccc1)c1ccc(C#N)cc1` (single isomer, unassigned) [109 Isomer 3] registered an IC50 of 61.3 nM.

As to `Cc1cc(C#N)nn1CCNC(C(=O)Nc1ccc(-c2cnn(C)c2)cn1)c1ccccc1` (single isomer, unassigned) [145 Isomer 2], the IC50 was greater than 2000 nM.

In turn, `COC1CCN(c2ccc(NC(=O)C(NCCc3ccc(C#N)cc3)c3ccccc3)nc2)CC1` (single isomer, unassigned) [66 Isomer 2] returned an IC50 greater than 5000 nM.

Regarding `N#Cc1ccc(CCNC(C(=O)Nc2ccc(N3CC4(COC4)C3)cn2)c2ccccc2)cc1` (single isomer, unassigned) [80 Isomer 2], the IC50 is greater than 2000 nM.

In turn, `Cn1cc(-c2ccnc(NC(=O)C(NCCc3ccc(C#N)cc3)c3ccccc3)c2)cn1` (single isomer, unassigned) [122 Isomer 1] returned an IC50 greater than 60000 nM.

With `Cn1cc(-c2ccc(NC(=O)C(NCCc3ccc(C#N)c(F)c3)c3ccccc3)nc2)cn1` (single isomer, unassigned) [85 Isomer 2], inhibition was half-maximal at 470 nM (IC50).

For the molecule `Cn1cc(-c2ccc(NC(=O)C(NCCc3ccc(C#N)cc3)c3ccccc3)nn2)cn1` (single isomer, unassigned) [57 Isomer 1], the midpoint of inhibition, the IC50, lay at 815 nM.

Take `CC(CNC(C(=O)Nc1ccc(-c2cnn(C)n2)cn1)c1ccccc1)c1ccc(C(F)(F)F)cc1` (single isomer, unassigned) [99 Isomer 2]: the IC50 was 1020 nM.

As for `Cn1cc(-c2cnc(NC(=O)C(NCCc3ccc(C#N)cc3)c3ccccc3)cn2)cn1` (single isomer, unassigned) [56 Isomer 2], the half-maximal inhibitory concentration (IC50) was greater than 5000 nM.

`CC(CNC(C(=O)Nc1ccc(-c2cnn(C(C)(C)CO)c2)cn1)c1ccccc1)c1ccc(C#N)cc1` (single isomer, unassigned) [8 Isomer 4] registered a half-maximal inhibitory concentration (IC50) of 19.6 nM.

Molecule `Cc1n[nH]c(C)c1-c1ccc(NC(=O)C(NC[C@@H](C)c2ccc(C#N)cc2)c2ccccc2)nc1` (single isomer, unassigned) [133 Isomer 1] registered an IC50 of 1230 nM.

With `Cc1ccc(C(C)CNC(C(=O)Nc2ccc(-c3cnn(C)c3)cn2)c2ccccc2)cn1` (single isomer, unassigned) [143 Isomer 1], the IC50 was greater than 2000 nM.

`CC1C(=O)N(C)CCN1c1ccc(NC(=O)C(NC[C@@H](C)c2ccc(C#N)cc2)c2ccccc2)nc1` (single isomer, unassigned) [126 Isomer 3] showed a half-maximal inhibitory concentration (IC50) greater than 2000 nM.

With `Cc1ccc(C(C)CNC(C(=O)Nc2ccc(-c3cnn(C)c3)cn2)c2ccccc2)cn1` (single isomer, unassigned) [143 Isomer 4], inhibition was half-maximal at 171 nM (IC50). This lies in the sub-micromolar range.

What is called IC50 is the concentration that gives 50% inhibition. High values mean a need for much substance, low ones inhibition by little substance.
